This assay addresses EGFR (L858R/T790M/C797S) kinase (Homo sapiens, UniProt P00533, C797S/L858R/T790M). The assay is described as follows: Kinase activity assay against EGFR(L858R/T790M/C797S) kinase at ATP Km concentration (33P-ATP, filter-binding). The format is biochemical. The settings on record: 10 concentrations, 20 min preincubation, 2 h reaction at room temperature. As to the method: The biological activity screening of the compounds will be determined repeatedly at 10 concentrations.
Each sample was prepared into a solution with a concentration of 10 mM. […]
a. Preparing basic buffer solution and quenching buffer solution for experimental kinase […]
b. Preparing compounds for experimental kinase
The test compound was dissolved in 100% dimethyl sulfoxide to a specific concentration. Integra Viaflo Assist was used to assist DMSO for (continuous) dilution.
Kinase was added to the newly prepared basic reaction buffer
Adding any desired cofactors to the substrate solution.
Acoustic technology (Echo 550; Nanoliter range) was used to feed the compounds in 100% of dimethyl sulfoxide into the kinase reaction mixture and incubated at room temperature for 20 minutes.
33P-ATP (specific activity 10 Ci/l) was added to the reaction mixture to start the reaction.
Incubated at room temperature for 2 hours
Radioactivity was detected by filter-binding method.
Kinase activity data was expressed as the percentage of remaining kinase activity in the test sample compared to the vehicle (dimethyl sulfoxide) reaction. Prism ([…] software) was used to obtain IC50 value and curve-fitting.

Chain of EGFR (L858R/T790M/C797S) kinase (P00533 25-1210 T790M/C797S/L858R): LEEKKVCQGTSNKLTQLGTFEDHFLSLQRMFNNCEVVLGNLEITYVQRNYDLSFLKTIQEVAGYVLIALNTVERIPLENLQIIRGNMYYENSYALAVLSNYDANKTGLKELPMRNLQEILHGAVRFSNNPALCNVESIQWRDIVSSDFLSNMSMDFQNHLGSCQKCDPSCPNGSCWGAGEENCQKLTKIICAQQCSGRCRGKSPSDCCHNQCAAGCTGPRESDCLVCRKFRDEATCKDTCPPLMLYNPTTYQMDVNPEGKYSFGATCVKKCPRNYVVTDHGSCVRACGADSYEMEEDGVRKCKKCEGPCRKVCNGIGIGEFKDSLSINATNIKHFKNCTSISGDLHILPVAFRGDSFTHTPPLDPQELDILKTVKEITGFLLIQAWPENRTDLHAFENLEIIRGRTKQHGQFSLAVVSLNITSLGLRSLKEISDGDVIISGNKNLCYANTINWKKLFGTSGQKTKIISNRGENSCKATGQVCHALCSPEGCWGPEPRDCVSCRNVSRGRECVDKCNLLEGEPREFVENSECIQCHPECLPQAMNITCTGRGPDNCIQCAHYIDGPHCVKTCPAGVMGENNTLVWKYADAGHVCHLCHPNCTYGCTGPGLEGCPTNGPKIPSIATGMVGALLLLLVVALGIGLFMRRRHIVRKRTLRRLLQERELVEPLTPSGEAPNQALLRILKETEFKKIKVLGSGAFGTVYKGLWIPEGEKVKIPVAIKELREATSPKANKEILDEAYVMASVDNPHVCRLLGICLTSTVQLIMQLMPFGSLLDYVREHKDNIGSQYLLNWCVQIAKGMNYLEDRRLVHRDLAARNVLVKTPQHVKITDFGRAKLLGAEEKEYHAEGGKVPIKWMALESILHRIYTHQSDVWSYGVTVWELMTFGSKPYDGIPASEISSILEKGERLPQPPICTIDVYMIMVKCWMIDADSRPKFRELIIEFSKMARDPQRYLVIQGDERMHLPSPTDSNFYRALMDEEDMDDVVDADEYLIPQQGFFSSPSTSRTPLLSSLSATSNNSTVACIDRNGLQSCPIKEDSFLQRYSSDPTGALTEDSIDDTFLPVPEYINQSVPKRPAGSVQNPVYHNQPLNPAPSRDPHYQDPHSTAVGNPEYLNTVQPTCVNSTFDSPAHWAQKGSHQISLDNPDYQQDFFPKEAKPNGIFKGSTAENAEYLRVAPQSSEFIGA

By IC50 is commonly meant the midpoint of a concentration-inhibition curve. Low readings indicate greater potency in that assay, high ones weaker potency in that assay. Consider `[2H]C(F)(F)Oc1cc(N2C[C@H]3CN(C)C[C@H]3C2)ccc1Nc1ncc(Cl)c(Nc2ccccc2P(C)(C)=O)n1` [Compound C1], for which the IC50 was found to be 12.4 nM.

Regarding `[2H]C(F)(F)Oc1cc(N2CC3CC(C2)N3)ccc1Nc1ncc(Cl)c(Nc2ccccc2P(C)(C)=O)n1` [Compound C2], the half-maximal inhibitory concentration (IC50) turned out to be 16.6 nM.

As for `[2H]C(F)(F)Oc1cc(N2CC3CC(C2)N3C)ccc1Nc1ncc(Cl)c(Nc2ccccc2P(C)(C)=O)n1` [Compound C3], the IC50 is 130 nM.

As for `[2H]C(F)(F)Oc1cc(N2C[C@H]3CNC[C@H]3C2)ccc1Nc1ncc(Cl)c(Nc2ccccc2P(C)(C)=O)n1` [Compound C4], the IC50 is 107 nM.

As to `[2H]C(F)(F)Oc1cc(N2C3CC2CN(C)C3)ccc1Nc1ncc(Cl)c(Nc2ccccc2P(C)(C)=O)n1` [Compound C5], the IC50 is 321 nM.

Regarding `[2H]C(F)(F)Oc1cc(N2CC3CCCNC3C2)ccc1Nc1ncc(Cl)c(Nc2ccccc2P(C)(C)=O)n1` (centres unmarked) [Compound C6], the IC50 came to 178 nM.

Take `[2H]C(F)(F)Oc1cc(-n2cc3c(n2)CNC3)ccc1Nc1ncc(Cl)c(Nc2ccccc2P(C)(C)=O)n1` [Compound C7]: the concentration for half-maximal inhibition (IC50) was determined as 22.3 nM.

`[2H]C(F)(F)Oc1cc(-n2cc3c(n2)CN(C)C3)c(C)cc1Nc1ncc(Cl)c(Nc2ccccc2P(C)(C)=O)n1` [Compound C9]: the IC50 amounted to 181 nM.

For the molecule `[2H]C(F)(F)Oc1cc(-n2ncc3c2CN(C)C3)c(C)cc1Nc1ncc(Cl)c(Nc2ccccc2P(C)(C)=O)n1` [Compound C10], the half-inhibitory concentration (IC50) is 1850 nM.

The molecule `[2H]C(F)(F)Oc1cc(N2CC3CCN(C)C3C2)ccc1Nc1ncc(Cl)c(Nc2ccccc2P(C)(C)=O)n1` (centres unmarked) [Compound C11] came in with an IC50 of 17.6 nM.

As for `[2H]C(F)(F)Oc1cc(N2CC3CCNC3C2)ccc1Nc1ncc(Cl)c(Nc2ccccc2P(C)(C)=O)n1` (centres unmarked) [Compound C12], the half-maximal inhibitory concentration (IC50) came out at 74.7 nM.

As for `[2H]C(F)(F)Oc1cc(N2C3CNCC2C3)ccc1Nc1ncc(Cl)c(Nc2ccccc2P(C)(C)=O)n1` [Compound C13], the IC50 was determined as 16.6 nM.

Regarding `[2H]C(F)(F)Oc1cc(-n2cc3c(n2)CN(C)C3)ccc1Nc1ncc(Cl)c(Nc2ccccc2P(C)(C)=O)n1` [Compound C14], the IC50 turned out to be 13.7 nM.

In the case of `[2H]C(F)(F)Oc1cc(N2C[C@H]3COC[C@H]3C2)ccc1Nc1ncc(Cl)c(Nc2ccccc2P(C)(C)=O)n1` [Compound C20], the IC50 worked out at 69.6 nM.

On to `CCc1cc(Nc2ncc(Br)c(Nc3ccc4nccnc4c3P(C)(C)=O)n2)c(OC)cc1N1C[C@H]2CN(C)C[C@H]2C1` [Compound C22], for which the IC50 was 0.3 nM.

With `COc1cc2c(cc1Nc1ncc(Cl)c(Nc3ccccc3P(C)(C)=O)n1)CCCN2CCN1CCN(C)CC1` [Compound C23], the IC50 was 20.5 nM.

Take `COc1cc2c(cc1Nc1ncc(Cl)c(Nc3ccccc3P(C)(C)=O)n1)CCCN2C(=O)CN1CCN(C)CC1` [Compound C24]: the concentration for half-maximal inhibition (IC50) turned out to be 19.5 nM.

`COc1cc2c(cc1Nc1ncc(Cl)c(Nc3ccccc3P(C)(C)=O)n1)CCCN2CC(=O)N1CCN(C)CC1` [Compound C25] displayed an IC50 of 803 nM.

`CCc1cc(Nc2nc(Nc3ccc4nccnc4c3P(C)(C)=O)c3ccccc3n2)c(OC)cc1N1C[C@H]2CN(C)C[C@H]2C1` [Compound C27] yielded an IC50 of 204 nM.

`CCc1cc(Nc2nc(Nc3ccc4nccnc4c3P(C)(C)=O)c3cccnc3n2)c(OC)cc1N1C[C@H]2CN(C)C[C@H]2C1` [Compound C28]: the IC50 turned out to be 803 nM.
